ChEMBL document CHEMBL1139973, “Synthesis and structure-activity relationships of taxuyunnanine C derivatives as multidrug resistance modulator in MDR cancer cells” (Bioorg Med Chem Lett, 2007)

How the values were obtained:
[1] = molecular target: T1, ATP-dependent translocase ABCB1 (Homo sapiens, UniProt P08183); assay: Inhibition of Pgp in multidrug-resistant human 2780AD cells assessed as vincristine accumulation at 0.1 ug/mL relative to verapamil; assay type: cell-based; set-up: scale not given: the % may be the effect or the level left; details: a2780 adr
T1 sequence (P08183 whole entry): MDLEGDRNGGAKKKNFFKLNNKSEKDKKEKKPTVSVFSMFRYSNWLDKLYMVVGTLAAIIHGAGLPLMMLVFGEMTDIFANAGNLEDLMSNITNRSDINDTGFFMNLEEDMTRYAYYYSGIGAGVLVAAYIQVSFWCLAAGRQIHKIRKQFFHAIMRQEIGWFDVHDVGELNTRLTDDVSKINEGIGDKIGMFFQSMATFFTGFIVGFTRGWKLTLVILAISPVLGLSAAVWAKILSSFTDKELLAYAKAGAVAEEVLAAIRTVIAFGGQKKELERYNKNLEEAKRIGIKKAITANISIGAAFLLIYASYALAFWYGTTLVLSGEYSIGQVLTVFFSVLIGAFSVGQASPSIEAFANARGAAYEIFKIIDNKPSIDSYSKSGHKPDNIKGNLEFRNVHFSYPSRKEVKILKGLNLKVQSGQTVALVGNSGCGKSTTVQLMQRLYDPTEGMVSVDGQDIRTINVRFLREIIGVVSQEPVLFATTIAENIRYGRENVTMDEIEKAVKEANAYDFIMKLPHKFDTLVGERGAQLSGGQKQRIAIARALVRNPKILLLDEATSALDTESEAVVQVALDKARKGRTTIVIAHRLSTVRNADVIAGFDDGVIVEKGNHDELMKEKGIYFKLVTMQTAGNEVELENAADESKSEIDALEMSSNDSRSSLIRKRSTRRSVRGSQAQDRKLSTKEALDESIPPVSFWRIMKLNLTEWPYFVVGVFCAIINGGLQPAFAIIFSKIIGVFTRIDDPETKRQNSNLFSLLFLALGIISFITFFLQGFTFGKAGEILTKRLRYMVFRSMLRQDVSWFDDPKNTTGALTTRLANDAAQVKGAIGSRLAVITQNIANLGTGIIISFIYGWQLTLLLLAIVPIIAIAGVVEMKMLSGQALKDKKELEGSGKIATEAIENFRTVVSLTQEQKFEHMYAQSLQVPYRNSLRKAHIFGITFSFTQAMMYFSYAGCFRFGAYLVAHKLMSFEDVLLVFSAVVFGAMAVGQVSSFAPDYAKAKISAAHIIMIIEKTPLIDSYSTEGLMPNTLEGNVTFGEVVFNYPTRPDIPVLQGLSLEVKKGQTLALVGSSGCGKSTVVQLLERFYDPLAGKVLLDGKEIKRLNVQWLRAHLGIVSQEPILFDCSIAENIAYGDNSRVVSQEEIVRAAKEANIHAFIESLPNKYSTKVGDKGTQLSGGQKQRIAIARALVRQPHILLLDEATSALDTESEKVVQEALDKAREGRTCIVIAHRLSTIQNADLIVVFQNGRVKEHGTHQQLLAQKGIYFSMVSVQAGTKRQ

[2] = molecular target: T1, ATP-dependent translocase ABCB1; assay: Inhibition of Pgp in multidrug-resistant human 2780AD cells assessed as vincristine accumulation at 1.0 ug/mL relative to verapamil; assay type: cell-based; set-up: scale not given: the % may be the effect or the level left; details: a2780 adr
[3] = molecular target: T1, ATP-dependent translocase ABCB1; assay: Inhibition of Pgp in multidrug-resistant human 2780AD cells assessed as vincristine accumulation at 10 ug/mL relative to control; assay type: cell-based; set-up: scale not given: the % may be the effect or the level left; details: a2780 adr
[4] = molecular target: T1, ATP-dependent translocase ABCB1; assay: Inhibition of Pgp in multidrug-resistant human 2780AD cells assessed as calcein accumulation at 25 ug/mL relative to control; assay type: cell-based; set-up: scale not given: the % may be the effect or the level left; details: a2780 adr
WI-38 VA13 = assay: Growth inhibition of human VA13 cells; assay type: functional, cell-based
[5] = molecular target: T1, ATP-dependent translocase ABCB1; assay: Inhibition of Pgp in multidrug-resistant human 2780AD cells assessed as vincristine accumulation at 10 ug/mL relative to verapamil; assay type: cell-based; set-up: scale not given: the % may be the effect or the level left; details: a2780 adr
[6] = Growth inhibition of human WI38 cells; assay type: cell-based; details: WI-38
[7] = molecular target: T1, ATP-dependent translocase ABCB1; assay: Inhibition of Pgp in multidrug-resistant human 2780AD cells assessed as vincristine accumulation at 1.0 ug/mL relative to control; assay type: cell-based; set-up: scale not given: the % may be the effect or the level left; details: a2780 adr
[8] = molecular target: T1, ATP-dependent translocase ABCB1; assay: Inhibition of Pgp in multidrug-resistant human 2780AD cells assessed as calcein accumulation at 2.5 ug/mL relative to control; assay type: cell-based; set-up: scale not given: the % may be the effect or the level left; details: a2780 adr
[9] = molecular target: T1, ATP-dependent translocase ABCB1; assay: Inhibition of Pgp in multidrug-resistant human 2780AD cells assessed as vincristine accumulation at 0.1 ug/mL relative to control; assay type: cell-based; set-up: scale not given: the % may be the effect or the level left; details: a2780 adr
HepG2 = assay: Growth inhibition of human HepG2 cells; assay type: functional, cell-based
[10] = molecular target: T1, ATP-dependent translocase ABCB1; assay: Inhibition of Pgp in multidrug-resistant human 2780AD cells assessed as calcein accumulation at 0.25 ug/mL relative to control; assay type: cell-based; set-up: scale not given: the % may be the effect or the level left; details: a2780 adr

Row | Compound | Activity [1] | Activity [2] | Activity [3] | Activity [4] | Activity [5] | Activity [7] | Activity [8] | Activity [9] | IC50 (HepG2) | Activity [10] | IC50 (WI-38 VA13) | IC50 [6]
1 | C=C1[C@@H](OC(C)=O)CC[C@@]2(C)C[C@H](OC(C)=O)C3=C(C)C[C@H](OC(=O)C(C)C)[C@@H]([C@@H](OC(C)=O)[C@H]12)C3(C)C | – | – | – | 148% | – | – | 139% | – | 28 µM | 133% | 90.9 µM | > 188 µM
2 | C=C1[C@@H](OC(C)=O)CC[C@@]2(C)C[C@H](OC(C)=O)C3=C(C)CC[C@@H]([C@@H](OC(C)=O)[C@H]12)C3(C)C | – | – | – | 91% | – | – | 105% | – | 10.3 µM | 89% | 12.2 µM | 8.93 µM
3 | C=C1[C@@H](OC(C)=O)CC[C@@]2(C)C[C@H](O)C3=C(C)C[C@H](OC(C)=O)[C@@H]([C@@H](OC(C)=O)[C@H]12)C3(C)C | 84% | 64% | 229% | 111% | 51% | 119% | 98% | 92% | 108 µM | 103% | 12.6 µM | 105 µM
4 | C=C1[C@@H](OC(C)=O)CC[C@@]2(C)[C@@H](OC(=O)/C=C/c3ccccc3)[C@H](OC(C)=O)C3=C(C)C[C@H](OC(C)=O)[C@@H]([C@@H](OC(C)=O)[C@H]12)C3(C)C | – | – | – | 125% | – | – | 103% | – | > 154 µM | 102% | > 154 µM | 151 µM
5 | C=C1[C@@H](OC(C)=O)C[C@H](OC(=O)/C=C/c2ccccc2)[C@@]2(C)C[C@H](OC(C)=O)C3=C(C)C[C@H](OC(=O)C(C)CC)[C@@H]([C@@H](OC(C)=O)[C@H]12)C3(C)C (stereo partly specified) | – | – | – | 102% | – | – | 98% | – | > 144 µM | 96% | > 144 µM | > 144 µM
6 | C=C1[C@@H](OC(C)=O)C[C@H](OC(=O)/C=C/c2ccccc2)[C@@]2(C)C[C@H](OC(C)=O)C3=C(C)C[C@H](OC(=O)C(C)C(C)O)[C@@H]([C@@H](OC(C)=O)[C@H]12)C3(C)C (stereo partly specified) | – | – | – | 130% | – | – | 102% | – | 80.4 µM | 97% | 49.9 µM | 62.4 µM
7 | C=C1[C@@H](OC(C)=O)CC[C@@]2(C)C[C@H](OC(C)=O)C3=C(C)C[C@H](OC(=O)CC)[C@@H]([C@@H](OC(C)=O)[C@H]12)C3(C)C | – | – | – | 119% | – | – | 98% | – | 86.4 µM | 104% | 93.7 µM | > 193 µM
8 | C=C1[C@@H](OC(C)=O)CC[C@@]2(C)C[C@H](OC(C)=O)C3=C(C)C[C@H](OC(=O)/C=C/c4ccccc4)[C@@H]([C@@H](OC(C)=O)[C@H]12)C3(C)C | 87% | 75% | 280% | 125% | 62% | 140% | 126% | 95% | > 169 µM | 123% | > 169 µM | 154 µM
9 | C=C1[C@@H](OC(C)=O)CC[C@@]2(C)[C@@H](O)[C@H](OC(C)=O)C3=C(C)C[C@H](OC(C)=O)[C@@H]([C@@H](OC(C)=O)[C@H]12)C3(C)C | 79% | 58% | 168% | 110% | 37% | 108% | 101% | 86% | 128 µM | 102% | > 192 µM | 129 µM
10 | C=C1[C@@H](OC(C)=O)C[C@H](O)[C@@]2(C)C[C@H](OC(C)=O)C3=C(C)C[C@H](OC(=O)C(C)C(C)O)[C@@H]([C@@H](OC(C)=O)[C@H]12)C3(C)C (stereo partly specified) | – | – | – | 107% | – | – | 104% | – | 153 µM | 87% | > 173 µM | 140 µM
11 | C=C1[C@@H](OC(C)=O)CC[C@@]2(C)C[C@H](OC(=O)/C=C/c3ccccc3)C3=C(C)C[C@H](OC(=O)/C=C/c4ccccc4)[C@@H]([C@@H](OC(C)=O)[C@H]12)C3(C)C | 83% | 49% | 122% | 80% | 27% | 92% | 80% | 91% | > 147 µM | 83% | > 147 µM | > 147 µM
12 | C=C1[C@@H](OC(C)=O)CC[C@@]2(C)C[C@H](OC(=O)/C=C/c3ccccc3)C3=C(C)C[C@H](O)[C@@H]([C@@H](OC(C)=O)[C@H]12)C3(C)C | 105% | 102% | 497% | 113% | 110% | 190% | 113% | 114% | 15.3 µM | 109% | 11.5 µM | 71.7 µM
13 | C=C1[C@@H](OC(C)=O)CC[C@@]2(C)C[C@H](OC(C)=O)C3=C(C)C[C@H](OC(=O)C(C)C(C)O)[C@@H]([C@@H](OC(C)=O)[C@H]12)C3(C)C (stereo partly specified) [YUNNANXANE] | – | – | – | 168% | – | – | 94% | – | 18.5 µM | 81% | 9.29 µM | 79.4 µM

Further compounds by falling IC50 (HepG2), results first:

Row | Activity [1] | Activity [2] | Activity [3] | Activity [4] | Activity [5] | Activity [7] | Activity [8] | Activity [9] | IC50 (HepG2) | Activity [10] | Compound | IC50 (WI-38 VA13) | IC50 [6]
14 | – | – | – | 141% | – | – | 118% | – | 183 µM | 118% | C=C1[C@@H](O)CC[C@@]2(C)C[C@H](OC(C)=O)C3=C(C)C[C@H](OC(C)=O)[C@@H]([C@@H](OC(C)=O)[C@H]12)C3(C)C | 105 µM | 149 µM
15 | – | – | – | 133% | – | – | 107% | – | 144 µM | 90% | C=C1[C@@H](OC(C)=O)CC[C@@]2(C)C[C@H](OC(C)=O)C3=C(C)C[C@H](OC(=O)c4ccccc4)[C@@H]([C@@H](OC(C)=O)[C@H]12)C3(C)C | > 176 µM | > 176 µM
16 | 89% | 84% | 259% | 111% | 74% | 144% | 99% | 101% | 122 µM | 99% | C=C1[C@@H](OC(C)=O)CC[C@@]2(C)C[C@H](OC(C)=O)C3=C(C)C[C@H](OC(C)=O)[C@@H]([C@@H](O)[C@H]12)C3(C)C | 104 µM | 130 µM
17 | 130% | 118% | 451% | 126% | 81% | 209% | 123% | 132% | 106 µM | 92% | C=C1[C@@H](OC(C)=O)CC[C@@]2(C)C[C@H](OC(=O)/C=C/c3ccccc3)C3=C(C)C[C@H](OC(C)=O)[C@@H]([C@@H](OC(C)=O)[C@H]12)C3(C)C | > 169 µM | > 169 µM
18 | – | – | – | 110% | – | – | 98% | – | 75.2 µM | 94% | C=C1[C@@H](OC(C)=O)C[C@H](O)[C@@]2(C)C[C@H](OC(C)=O)C3=C(C)C[C@H](OC(=O)C(C)CC)[C@@H]([C@@H](OC(C)=O)[C@H]12)C3(C)C (stereo partly specified) | 79.1 µM | 81.6 µM
19 | – | – | – | 125% | – | – | 96% | – | 51.9 µM | 98% | C=C1[C@@H](OC(C)=O)CC[C@@]2(C)C[C@H](OC(C)=O)C3=C(C)C[C@H](OC(C)=O)[C@@H]([C@@H](OC(=O)c4ccccc4)[C@H]12)C3(C)C | 175 µM | 125 µM
20 | – | – | – | 119% | – | – | 86% | – | 41.7 µM | 100% | C=C1[C@@H](OC(C)=O)CC[C@@]2(C)C[C@H](OC(C)=O)C3=C(C)C[C@H](OC(=O)C(C)CC)[C@@H]([C@@H](OC(C)=O)[C@H]12)C3(C)C (stereo partly specified) | 61.1 µM | > 183 µM
21 | – | – | – | 114% | – | – | 98% | – | 18.5 µM | 97% | C=C1[C@@H](OC(C)=O)CC[C@@]2(C)C[C@H](OC(C)=O)C3=C(C)C[C@H](OC(=O)CCC)[C@@H]([C@@H](OC(C)=O)[C@H]12)C3(C)C | 17.2 µM | 73.4 µM
22 | – | – | – | 127% | – | – | 141% | – | 18.5 µM | 130% | C=C1[C@@H](OC(C)=O)CC[C@@]2(C)C[C@H](OC(C)=O)C3=C(C)C[C@H](OC(C)=O)[C@@H]([C@@H](OC(C)=O)[C@H]12)C3(C)C [TAXUYUNNANINE C] | 53.1 µM | 130 µM
23 | – | – | – | 111% | – | – | 88% | – | 16.6 µM | 94% | C=C1[C@@H](OC(C)=O)CC[C@@]2(C)C[C@H](OC(C)=O)C3=C(C)C[C@H](OC(=O)CCCC)[C@@H]([C@@H](OC(C)=O)[C@H]12)C3(C)C | 56.7 µM | > 183 µM
24 | – | – | – | 121% | – | – | 95% | – | 9.95 µM | 102% | C=C1[C@@H](OC(=O)/C=C/c2ccccc2)CC[C@@]2(C)C[C@H](OC(C)=O)C3=C(C)C[C@H](OC(C)=O)[C@@H]([C@@H](OC(C)=O)[C@H]12)C3(C)C | 125 µM | 99 µM
